Laboratory results published in patent US11352353B2, “Heterocyclic compound serving as FGFR4 inhibitor” (Hangzhou Innogate Pharma Co., Ltd., priority 2016, dated 2022).

How the values were obtained:
[1] = test system: Huh7 tumor cells; assay: Inhibition of Huh-7 tumor cell proliferation (CellTiter Glo); assay type: cell-based; conditions: Homo sapiens, 72 or 168 hours
Description: 2. Compound Inhibition Test on Huh-7 Tumor Cell Proliferation
The Huh7 cell suspension was adjusted to 5×10e4/mL or 2×10e4/mL with DMEM+2 Mm Glutamine+10% FBS medium. A 100 μL cell suspension was added to each well in a 96-well cell culture plate at a final cell concentration of 5000 cells/well (72 hours) or 2000 cells/well (168 hours). The test compound was dissolved in DMSO as a 10 mM stock solution. Compounds at a final concentration of 200× were prepared using stock solutions and DMSO, and 3× serial dilutions were prepared and then diluted 20-fold with each medium. Finally, 10 μL of the corresponding 10-fold solution was added to each well of each cell, and each drug concentration was single-well. The final concentrations of each compound were 3000 nM, 1000 nM, 333.3 nM, 111.1 nM, 37.04 nM, 12.35 nM, 4.12 nM, 1.37 nM, and the final concentration of DMSO per well was 0.5%. Incubate for 72 or 168 hours in a 37° C., 5% CO2 incubator. After 72 or 168 hours of drug treatment, according to the CTG instructions, add 100 µL CellTiter Glo detection reagent per well, pre-melt and equilibrate to room temperature CTG solution, mix with a microplate shaker for 2 minutes, and leave at room temperature for 10 minutes. The chemiluminescence signal value was then measured using an EnSpire plate reader. Cell survival rate was calculated using formula: (Vsample−Vblank)/(Vvehicle control−Vblank)×100%. Vsample is the reading of the drug treatment group, Vvehicle control is the average value of the solvent control group, and Vblank is the average value of the blank control well. The S-type dose-survival curve was plotted and the IC50 values were calculated using the GraphPad Prism 5.0 software using a non-linear regression model.

[2] = biological target: FGFR4 (Homo sapiens, UniProt P22455); assay: FGFR4 kinase activity inhibition (Caliper mobility shift assay); assay type: biochemical; conditions: FAM-labeled peptide and ATP, 28° C. 30-60 minutes, read-out: FGFR kinase inhibition (IC50, nM) FGFR4
Description: (§1) 1. FGFR1 and FGFR4 Kinase Activity Inhibition Experiments
(§2) The FGFR1, FGFR2, FGFR3 and FGFR4 protein kinase activities were determined using the Caliper mobility shift assay. The compound was dissolved in DMSO and diluted with kinase buffer, and 5 µL of a 5-fold final concentration of the compound (10% DMSO) was added to a 384-well plate. After adding 10 µL of 2.5-fold enzyme (FGFR1 and FGFR4, respectively) solution, incubate for 10 minutes at room temperature, and then add 10 µL of a (FAM-labeled peptide and ATP) solution. Incubate at 28° C. for 30-60 minutes and stop the reaction by adding 25 µL stop solution. Conversion rate data was read on a Caliper EZ Reader II (Caliper Life Sciences). The conversion rate was converted into inhibition rate data (% inhibition rate=(max−sample conversion rate)/(max−min)*100). Wherein max is the conversion of the DMSO control and min is the conversion of the enzyme-free control. Plot the curve with the compound concentration and inhibition rate on the horizontal and vertical coordinates, and fit the curve and calculate the IC50 using XLFit excel add-in version 4.3.1 software.

[3] = biological target: FGFR1 (Homo sapiens, UniProt P11362); assay: FGFR1 kinase activity inhibition (Caliper mobility shift assay); assay type: biochemical; conditions: FAM-labeled peptide and ATP, 28° C. 30-60 minutes, read-out: FGFR kinase inhibition (IC50, nM) FGFR1
Description: as §1, §2

Sequence of FGFR4 (P22455 22-802): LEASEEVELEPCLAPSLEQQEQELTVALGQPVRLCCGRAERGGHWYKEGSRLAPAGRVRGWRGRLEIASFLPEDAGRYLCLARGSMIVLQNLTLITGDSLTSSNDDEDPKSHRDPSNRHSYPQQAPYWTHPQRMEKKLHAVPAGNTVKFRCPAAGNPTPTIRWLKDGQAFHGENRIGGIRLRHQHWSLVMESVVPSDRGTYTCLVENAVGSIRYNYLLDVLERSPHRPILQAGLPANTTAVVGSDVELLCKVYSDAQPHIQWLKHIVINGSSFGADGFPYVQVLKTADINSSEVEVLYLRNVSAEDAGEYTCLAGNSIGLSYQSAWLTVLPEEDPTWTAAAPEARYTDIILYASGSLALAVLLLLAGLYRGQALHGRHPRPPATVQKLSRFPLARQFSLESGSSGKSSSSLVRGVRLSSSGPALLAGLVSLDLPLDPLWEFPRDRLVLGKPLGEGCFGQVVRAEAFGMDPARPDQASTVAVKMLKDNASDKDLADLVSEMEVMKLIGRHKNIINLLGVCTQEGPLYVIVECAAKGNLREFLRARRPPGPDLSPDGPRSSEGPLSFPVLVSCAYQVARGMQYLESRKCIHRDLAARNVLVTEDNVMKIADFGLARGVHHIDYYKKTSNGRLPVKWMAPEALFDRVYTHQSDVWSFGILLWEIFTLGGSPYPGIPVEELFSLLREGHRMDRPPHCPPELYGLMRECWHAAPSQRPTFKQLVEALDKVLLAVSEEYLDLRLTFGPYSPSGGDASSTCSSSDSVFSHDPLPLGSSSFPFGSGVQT
Sequence of FGFR1 (P11362 22-822): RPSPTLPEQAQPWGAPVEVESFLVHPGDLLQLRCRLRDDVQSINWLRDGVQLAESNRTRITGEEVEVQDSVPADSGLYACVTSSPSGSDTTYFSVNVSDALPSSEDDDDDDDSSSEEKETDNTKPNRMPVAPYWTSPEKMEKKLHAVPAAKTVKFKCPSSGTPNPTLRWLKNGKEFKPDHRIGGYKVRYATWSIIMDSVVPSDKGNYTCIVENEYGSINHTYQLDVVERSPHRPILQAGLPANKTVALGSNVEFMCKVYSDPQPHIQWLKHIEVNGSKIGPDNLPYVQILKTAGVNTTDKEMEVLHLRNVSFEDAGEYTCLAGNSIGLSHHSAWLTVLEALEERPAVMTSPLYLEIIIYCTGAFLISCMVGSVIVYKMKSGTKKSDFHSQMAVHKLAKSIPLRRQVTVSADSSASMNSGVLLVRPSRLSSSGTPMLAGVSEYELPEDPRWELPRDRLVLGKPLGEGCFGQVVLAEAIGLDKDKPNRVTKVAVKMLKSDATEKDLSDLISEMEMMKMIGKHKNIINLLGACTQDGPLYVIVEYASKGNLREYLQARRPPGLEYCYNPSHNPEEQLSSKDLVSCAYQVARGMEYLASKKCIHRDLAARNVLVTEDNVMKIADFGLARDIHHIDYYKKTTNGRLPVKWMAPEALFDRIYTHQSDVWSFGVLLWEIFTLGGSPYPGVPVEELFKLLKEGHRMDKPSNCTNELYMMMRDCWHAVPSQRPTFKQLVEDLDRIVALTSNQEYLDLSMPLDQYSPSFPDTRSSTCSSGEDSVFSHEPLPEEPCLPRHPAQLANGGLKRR

SMILES: CN1CCCN(Cc2cc3c(nc2C=O)N(C(=O)Nc2cc(OC4CC4)c(C#N)cn2)CCC3)C(=O)C1 [Compound 5]
- IC50 [1]: < 50 nM

SMILES: CN1CCN(Cc2cc3c(nc2C=O)N(C(=O)Nc2cc(NC4CC4)c(C#N)cn2)CCC3)C(=O)C1 [Compound 12]
- IC50 [2]: < 5 nM

SMILES: N#Cc1cnc(NC(=O)N2CCCc3cc(CN4CC5CCCN5CC4=O)c(C=O)nc32)cc1OC1CC1 (stereo not drawn) [Compound 6]
- IC50 [1]: < 500 nM

SMILES: COC1CC(Nc2cc(NC(=O)N3CCCc4cc(CN5CCN(C)CC5=O)c(C=O)nc43)ncc2C#N)C1 (stereo not drawn) [Compound 8]
- IC50 [2]: < 5 nM

SMILES: COCCNc1cc(NC(=O)N2CCCc3cc(CN4CCCN(C)CC4=O)c(C=O)nc32)ncc1C#N [Compound 9]
- IC50 [2]: < 5 nM

SMILES: COCCNc1cc(NC(=O)N2CCCc3cc(CN4CCN(C5CN(C)C5)CC4=O)c(C=O)nc32)ncc1C#N [Compound 11]
- IC50 [2]: < 5 nM

SMILES: CO[C@H]1CC[C@@H](Nc2cc(NC(=O)N3CCCc4cc(CN5CCN(C)CC5=O)c(C=O)nc43)ncc2C#N)CC1 [Compound 3]
- IC50 [1]: < 50 nM

SMILES: CN1CCN(Cc2cc3c(nc2C=O)N(C(=O)Nc2cc(OC4CC4)c(C#N)cn2)CCC3)C(=O)C1 [Compound 1]
- IC50 [3]: > 10000 nM
- IC50 [1]: < 50 nM

SMILES: COC1CCC(Oc2cc(NC(=O)N3CCCc4cc(CN5CCN(C)CC5=O)c(C=O)nc43)ncc2C#N)CC1 (stereo not drawn) [Compound 2]
- IC50 [3]: > 10000 nM
- IC50 [1]: < 50 nM

SMILES: N#Cc1cnc(NC(=O)N2CCCc3cc(CN4CCN(C5CC5)CC4=O)c(C=O)nc32)cc1OC1CC1 [Compound 4]
- IC50 [2]: < 20 nM
- IC50 [1]: < 500 nM

SMILES: COCCNc1cc(NC(=O)N2CCCc3cc(CN4CCN5CCCC5C4=O)c(C=O)nc32)ncc1C#N (stereo not drawn) [Compound 10]
- IC50 [2]: < 5 nM

SMILES: COCC1(Oc2cc(NC(=O)N3CCCc4cc(CN5CCN(C)CC5=O)c(C=O)nc43)ncc2C#N)CC1 [Compound 7]
- IC50 [1]: < 500 nM
